Experimental data from patent publication US8058243B2, “Method for treating a brain cancer with ifenprodil” (HSC Research and Development Limited Partnership, priority 2006, dated 2011).
Counter-ions that a name gives are not always drawn. Like-named read-outs stand apart in the source and are kept apart here.

Test system: murine neural precursor cells (neurosphere cultures)
Assay: HTS of LOPAC library against secondary neurosphere cultures, MTT proliferation assay at 3 μM, day 7 (z score, P value)
Type: cell-based, mouse
[1] = LOPAC primary screen, neurosphere MTT proliferation, 3 μM, day 7
[2] = LOPAC library screen, 3 μM, MTT, neurosphere cultures
[3] = LOPAC screen, neurosphere MTT proliferation, 3 μM, day 7
[4] = yes/no: significantly inhibited neurosphere proliferation (P<0.01) in primary screen
[5] = LOPAC library screen, 3 μM, MTT, secondary neurosphere cultures, day 7
[6] = primary LOPAC screen, 3 μM, MTT, neurosphere proliferation
[7] = yes/no: significantly inhibited neurosphere proliferation in the primary screen
[8] = yes/no: significantly inhibited neurosphere proliferation (P<0.01) in the primary screen
[9] = LOPAC library screen at 3 μM, secondary neurosphere cultures, MTT
[10] = yes/no: significantly inhibited neurosphere proliferation in primary screen
[11] = yes = significantly inhibited neurosphere proliferation (P<0.01) in the primary screen

Row | Compound | Z Score | Z score [1] | Activity [10] | further results
1 | CCN(CC)C(=O)NC1C=C2c3cccc4[nH]cc(c34)C[C@H]2N(C)C1.O=C(O)/C=C\C(=O)O (stereo partly drawn) [R(+)-Lisuride hydrogen maleate] | −1.041 | −1.041 |  | 
2 | CN1CCc2cc(Cl)c(O)cc2[C@@H](c2ccccc2)C1.Cl [R(+)-SCH-23390 hydrochloride] |  |  |  | Z Score [2]: 1.375; Z score [3]: 1.375; Activity [4]: no
3 | CCN(CC)C(=O)N[C@H]1C[C@@H]2c3cccc4[nH]cc(c34)C[C@H]2N(C)C1 [R(+)-Terguride] |  |  |  | Z Score [5]: −2.004; Z score [6]: −2.004; Activity [7]: no
4 | CCCN(CCC)[C@@H]1CCc2c(F)ccc(O)c2C1.Cl [R(+)-UH-301 hydrochloride] | −2.517 | −2.517 |  | Activity [8]: yes
5 | CN1CCc2cc(O)cc3c2[C@H]1Cc1ccc(O)c(O)c1-3 [R(−)-2,10,11-Trihydroxyaporphine] |  | −3.309 |  | Activity [8]: yes
6 | COc1cc2c(cc1OC)[C@@H](c1ccccc1)CN(C)CC2.O=C(O)/C=C\C(=O)O [R(−)-SCH-12679 maleate] | 1.6092 |  |  | Z score [6]: 1.609; Activity [7]: no
7 | Br.CCCN(CCC)[C@@H]1CCc2ccc(O)cc2C1 [R-(+)-7-Hydroxy-DPAT hydrobromide] | −2.59 | −2.590 |  | Activity [8]: yes
8 | Br.CCCN(CCC)[C@@H]1CCc2cccc(O)c2C1 [R-(+)-8-Hydroxy-DPAT hydrobromide] |  | −0.692 |  | Z Score [9]: −0.6916; Activity [8]: no
9 | CCCCCC(O)c1cccc(OCc2ccc3ccccc3n2)c1 (centres unmarked) [REV 5901] |  |  | no | Z Score (168 h, 3 µM): −1.184; Z score (168 h, 3 µM): −1.184
10 | COC1(C2=NCCN2)COc2ccccc2O1.Cl (centres unmarked) [RX 821002 hydrochloride] | 0.249 | 0.249 | no | 
11 | O=C(c1ccc(OCCN2CCCCC2)cc1)c1c(-c2ccc(O)cc2)sc2cc(O)ccc12 [Raloxifene hydrochloride] |  | −9.222 |  | Z Score [5]: −9.222; Activity [11]: yes
12 | CNC(=C[N+](=O)[O-])NCCSCc1ccc(CN(C)C)o1 [Ranitidine hydrochloride] |  | 0.023 | no | Z Score [2]: 0.02275
13 | COc1ccccc1OCC(O)CN1CCN(CC(=O)Nc2c(C)cccc2C)CC1 (centres unmarked) [Ranolazine dihydrochloride] |  | −2.104 | no | Z Score [5]: −2.104
14 | COC(=O)[C@H]1[C@H]2C[C@H]3c4[nH]c5ccccc5c4CCN3C[C@H]2CC[C@@H]1O [Rauwolscine hydrochloride] |  |  | no | Z Score (168 h, 3 µM): −1.747; Z score (168 h, 3 µM): −1.747
15 | COC(=O)[C@H]1[C@H]2C[C@@H]3c4[nH]c5cc(OC)ccc5c4CCN3C[C@H]2C[C@@H](OC(=O)c2cc(OC)c(OC)c(OC)c2)[C@@H]1OC [Reserpine] |  | −1.023 |  | Z Score [9]: −1.023; Activity [11]: no
16 | Oc1ccc(C=Cc2cc(O)cc(O)c2)cc1 [Resveratrol] |  | −0.230 | no | Z Score [9]: −0.2295
17 | CC1=C(/C=C/C(C)=C/C=C/C(C)=C/C(=O)O)C(C)(C)CCC1 [Retinoic acid] |  | −0.866 |  | Z Score [9]: −0.8657
18 | NC(=O)c1ncn([C@@H]2O[C@H](CO)[C@@H](O)[C@H]2O)n1 [Ribavirin] |  |  |  | Activity: no
19 | C1COC(NC(C2CC2)C2CC2)=N1 [Rilmenidine hemifumarate] |  | 0.526 | no | Z Score [2]: 0.5264
20 | Nc1nc2ccc(OC(F)(F)F)cc2s1 [Riluzole] |  | −1.033 |  | Z Score [9]: −1.033
21 | Cc1nc2n(c(=O)c1CCN1CCC(c3noc4cc(F)ccc34)CC1)CCCC2 [Risperidone] | 1.694 | 1.694 | no | 
22 | Cc1nc2sccn2c(=O)c1CCN1CCC(=C(c2ccc(F)cc2)c2ccc(F)cc2)CC1 [Ritanserin] |  | −0.696 | no | Z Score [9]: −0.6957
23 | CC(NCCc1ccc(O)cc1)C(O)c1ccc(O)cc1 (centres unmarked) [Ritodrine hydrochloride] |  | −2.332 |  | Z Score [5]: −2.332; Activity [8]: yes
24 | CNc1cc(NS(=O)(=O)c2ccc(N)cc2)nc(NC)n1.Cl.Cl [Ro 04-6790 dihydrochloride] | 0.3428 | 0.343 | no | 
25 | NC(=O)c1ccc(OCC(O)CN2CC=C(c3ccc(F)cc3)CC2)cc1 (centres unmarked) [Ro 8-4304] | −2.188 | −2.188 | no | 
26 | Cl.NCCNC(=O)c1ccc(Cl)cc1 [Ro 16-6491 hydrochloride] | −2.181 | −2.181 | no | 

Row | Compound | Z Score | Z score [1] | Activity [10] | further results
27 | O=C(c1cc(O)c(O)c([N+](=O)[O-])c1)c1ccccc1F [Ro 41-0960] | −0.36 | −0.360 | no | 
28 | Cl.NCCNC(=O)c1ncsc1-c1cccc(F)c1 [Ro 41-1049 hydrochloride] | 1.328 | 1.328 | no | 
29 | COc1ccc(C2CNC(=O)C2)cc1OC1CCCC1 (centres unmarked) [Rolipram] |  | −2.091 | no | Z Score [5]: −2.091
30 | CCCN(CCC)CCc1cccc2c1CC(=O)N2 [Ropinirole hydrochloride] |  |  |  | Activity: no; Z Score (168 h, 3 µM): −0.2552; Z score (168 h, 3 µM): −0.255
31 | CC[C@H](CO)Nc1nc(NCc2ccccc2)c2ncn(C(C)C)c2n1 [Roscovitine] | 0.00273 |  |  | Activity: no; Z score: 0.003
32 | C=C(C)[C@H]1Cc2c(ccc3c2O[C@@H]2COc4cc(OC)c(OC)cc4[C@@H]2C3=O)O1 [Rotenone] | −11.27 | −11.274 |  | Activity [11]: yes
33 | CC(=O)c1c(O)c(C)c(O)c(Cc2c(O)c3c(c(C(=O)/C=C/c4ccccc4)c2O)OC(C)(C)C=C3)c1O [Rottlerin] | 0.3042 | 0.304 | no | 
34 | CCN(CC)CC.Nc1ncnc2c1ncn2C1OC2COP(O)(=S)O[C@@H]2[C@@H]1O (some centres unmarked) [Rp-cAMPS triethylamine] | 1.186 |  |  | Activity: no; Z score: 1.186
35 | O=c1c2ccccc2nc2n1CCc1c-2[nH]c2ccccc12 [Rutaecarpine] |  |  |  | Z Score (168 h, 3 µM): 0.6857; Z score (168 h, 3 µM): 0.686
36 | N.N.N.N.N.N.N.N.N.N.N.N.N.N.[Cl-].[Cl-].[Cl-].[Cl-].[Cl-].[Cl-].[O-2].[O-2].[Ru+3].[Ru+3].[Ru+4] [Ruthenium red] | −0.07388 | −0.074 | no | 
37 | CC(C)Cc1ccc([C@H](C)C(=O)O)cc1 [S(+)-Ibuprofen] |  | −0.733 |  | Z Score [9]: −0.7335; Activity [4]: no
38 | CC(C)NC[C@@H](O)c1ccc(O)c(O)c1.O=C(O)C(O)C(O)C(=O)O [S(+)-Isoproterenol (+)-bitartrate] | −0.2963 |  |  | 
39 | CC(C)NC[C@@H](O)c1ccc(O)c(O)c1.O=C(O)C(O)C(O)C(=O)O [S(+)-Isoproterenol(+)-bitartrate] |  | −0.296 |  | Activity [4]: no
40 | CCCN1CCO[C@@H]2c3cc(O)ccc3OC[C@H]21.Cl [S(+)-PD 128,907 hydrochloride] | −1.174 | −1.174 | no | 
41 | CCCN1CCC[C@@H](c2cccc(O)c2)C1.Cl [S(−)-3PPP hydrochloride] | −0.4205 | −0.421 | no | 
42 | CCCN1CCC[C@@H](c2cccc(C#N)c2)C1.Cl [S(−)-DS 121 hydrochloride] | −0.0998 |  |  | Z score [3]: −0.100; Activity [4]: no
43 | CCN1CCC[C@H]1CNC(=O)c1c(OC)ccc(I)c1O [S(−)-IBZM] | −0.1166 | −0.117 |  | Activity [8]: no
44 | CC(C)NCC(O)COc1cccc2[nH]ccc12 (stereo not drawn) [S(−)-Pindolol] |  | −1.122 | no | Z score [3]: −0.965; Activity [4]: no
45 | CCCN(CCC)[C@H]1CCc2c(F)ccc(O)c2C1.Cl [S(−)-UH-301 hydrochloride] | −2.706 | −2.706 |  | Activity [8]: yes
46 | N[C@@H](Cn1cc(I)c(=O)[nH]c1=O)C(=O)O [S-5-Iodowillardiine] | −0.3551 |  |  | Z score [6]: −0.355; Activity [7]: no
47 | Nc1nc(SCc2ccc([N+](=O)[O-])cc2)c2ncn([C@@H]3O[C@H](CO)[C@@H](O)[C@H]3O)c2n1 [S-(4-Nitrobenzyl)-6-thioguanosine] |  | 0.102 | no | Z Score [2]: 0.1017
48 | O=[N+]([O-])c1ccc(CSc2ncnc3c2ncn3[C@@H]2O[C@H](CO)[C@@H](O)[C@H]2O)cc1 [S-(4-Nitrobenzyl)-6-thioinosine] |  |  |  | Z Score (168 h, 3 µM): −0.4271; Z score (168 h, 3 µM): −0.427; Activity [11]: no
49 | CNCC[C@H](Oc1ccc(C(F)(F)F)cc1)c1ccccc1.Cl [S-(+)-Fluoxetine hydrochloride] |  | −0.809 |  | Z Score [9]: −0.8088; Activity [4]: no
50 | [N-]=[N+]=Nc1ccc(C(=O)CSC[C@H](NC(=O)CC[C@H](N)C(=O)O)C(=O)NCC(=O)O)cc1 [S-(p-Azidophenacyl)glutathione] |  |  |  | Z Score [2]: −0.00276; Z score [6]: −0.003; Activity [7]: no
51 | CCc1cc(Cl)c(OC)c(C(=O)NC[C@@H]2CCCN2CC)c1O.Cl [S-(−)-Eticlopride hydrohloride] |  | −5.158 |  | Activity [8]: yes
52 | Br.CCSC(=N)N [S-Ethylisothiourea hydrobromide] |  |  |  | Z Score (168 h, 3 µM): −1.599; Z score (168 h, 3 µM): −1.599; Activity [4]: no
